Here are results for 2 molecules from patent US8404693B2, “Substituted piperidine compounds and methods of their use” (Adolor Corporation, priority 2003, dated 2013).

For experiment [1], the target named is T1, cloned human δ opioid receptor (Homo sapiens, UniProt P41143).
T1 construct: expressed in transfected cells
Briefly: [3H]diprenorphine receptor binding, δ opioid receptor. The following applies: [3H]diprenorphine displacement; read-out: affinity (expressed as Ki value), δ opioid receptor. On the procedure: (§1) The potencies of the compounds were determined by testing the ability of a range of concentrations of each compound to inhibit the binding of the non-selective opioid antagonist, [^3H]diprenorphine, to the cloned human μ, κ, and δ opioid receptors, expressed in separate cell lines. IC50 values were obtained by nonlinear analysis of the data using GraphPad Prism version 3.00 for Windows (GraphPad Software, San Diego). Ki values were obtained by Cheng-Prusoff corrections of IC50 values.
(§2) The receptor binding method (DeHaven and DeHaven-Hudkins, 1998) was a modification of the method of Raynor et al. (1994). […] The filters were rinsed 4 times with 1 mL of cold 50 mM Tris HCl, pH 7.8 and radioactivity remaining on the filters determined by scintillation spectroscopy. Nonspecific binding was determined by the minimum values of the titration curves and was confirmed by separate assay wells containing 10 μM naloxone. Ki values were determined by Cheng-Prusoff corrections of IC50 values derived from nonlinear regression fits of 12 point titration curves using GraphPad Prism® version 3.00 for Windows (GraphPad Software, San Diego, Calif.).
(§3) To determine the equilibrium dissociation constant for the inhibitors (Ki), radioligand bound (cpm) in the presence of various concentrations of test compounds was measured. […]

Experiment [2] addresses T2, cloned human μ opioid receptor (Homo sapiens, UniProt P35372).
T2 construct: expressed in transfected cells
The experiment is described as follows: [3H]diprenorphine receptor binding, μ opioid receptor. The following applies: [3H]diprenorphine displacement; read-out: affinity (expressed as Ki value), μ opioid receptor. The procedure: as §1, §2, §3

In experiment [3] the target is T2, cloned human μ opioid receptor. Briefly: inhibition of agonist (loperamide)-stimulated [35S]GTPγS binding. In kind it is biochemical. The following applies: receptor not given; mu opioid receptor from context; read-out: in vitro antagonist activity (IC50). The procedure: The potencies of the antagonists were assessed by their abilities to inhibit agonist-stimulated [^35S]GTPγS binding to membranes containing the cloned human μ, κ, or δ opioid receptors. The agonists used were loperamide for the μ opioid receptor, U50488H for the κ opioid receptor, and BW373U86 for the δ opioid receptor.
To determine the IC50 value, which was the concentration to give half-maximal inhibition of agonist-stimulated [^35S]GTPγS binding, the amount of [^35S]GTPγS bound in the presence of a fixed concentration of agonist and various concentrations of antagonist was measured. The fixed concentration of agonist was the EC80 for the agonist, which was the concentration to give 80% of the relative maximum stimulation of [^35S]GTPγS binding. The IC50 value was determined from a best nonlinear regression fit of the data to the following equation,
where Y is the amount of [^35S]GTPγS bound at each concentration of antagonist, Bottom is the calculated amount of [^35S]GTPγS bound in the presence of an infinite concentration of antagonist, Top is the calculated amount of [^35S]GTPγS bound in the absence of added antagonist, X is the logarithm of the concentration of antagonist, and Log IC50 is the logarithm of the concentration of antagonist where the amount of [^35S]GTPγS bound is halfway between Bottom and Top. […]

The target of experiment [4] is T3, cloned human κ opioid receptor (Homo sapiens, UniProt P41145).
T3 construct: expressed in transfected cells
Briefly: [3H]diprenorphine receptor binding, κ opioid receptor. The following applies: [3H]diprenorphine displacement; read-out: affinity (expressed as Ki value), κ opioid receptor. On the procedure:
as §1, §2, §3

Experiment [5] relates to Mouse Gastrointestinal Transit (GIT). The experiment is described as follows: Mouse Gastrointestinal Transit (GIT) Assay. It counts as in vivo. Conditions: 10 mg/kg p.o., morphine 3 mg/kg s.c. On the procedure: Male Swiss-Webster mice (25-30 g) obtained from Ace Animals (Boyertown, Pa.) were used for all experiments. Mice were housed 4/cage in polycarbonate cages with food and water available ad libitum. Mice were on a 12 hours light:dark schedule with lights on at 6:30 a.m. All experiments were performed during the light cycle. Mice were fasted the night before the experiment, with water available ad libitum.
Mice were administered vehicle (10% DMSO:20% Cremophor EL:70% saline) or test compound (10 mg/kg) orally 2 or 6 hours before determination of GIT. Compounds were administered in a volume of 0.1 ml/10 g of body weight. Morphine (3 mg/kg) or vehicle (0.9% saline) was administered s.c. 35 min prior to determination of GIT. Ten minutes after the morphine treatment, mice were administered 0.2 ml of a charcoal meal orally. The charcoal meal consisted of a slurry of charcoal, flour, and water in the following ratio (1:2:8, w:w:v). Twenty-five minutes after receiving the charcoal meal, the mice were euthanized with CO2 and GIT determined.
GIT is expressed as the % GIT by the following formula:
[formula] For each compound a % Antagonism (% A) value was determined for the 2 and 6 hr antagonist pretreatment. Using the mean % GIT for each treatment group, % A was calculated using the following formula: […]

Each structure is given as a SMILES string.

T2 sequence (P35372 whole entry): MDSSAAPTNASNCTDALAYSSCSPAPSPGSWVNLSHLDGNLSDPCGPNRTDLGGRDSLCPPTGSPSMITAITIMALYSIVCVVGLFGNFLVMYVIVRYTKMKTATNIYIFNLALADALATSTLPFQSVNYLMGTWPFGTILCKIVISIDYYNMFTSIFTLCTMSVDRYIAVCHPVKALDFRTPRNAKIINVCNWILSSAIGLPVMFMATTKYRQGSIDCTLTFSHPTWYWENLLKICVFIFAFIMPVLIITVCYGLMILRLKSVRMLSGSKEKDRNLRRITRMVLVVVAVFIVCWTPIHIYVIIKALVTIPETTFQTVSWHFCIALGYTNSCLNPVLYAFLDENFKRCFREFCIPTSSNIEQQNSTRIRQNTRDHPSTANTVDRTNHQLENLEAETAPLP
T1 sequence (P41143 whole entry): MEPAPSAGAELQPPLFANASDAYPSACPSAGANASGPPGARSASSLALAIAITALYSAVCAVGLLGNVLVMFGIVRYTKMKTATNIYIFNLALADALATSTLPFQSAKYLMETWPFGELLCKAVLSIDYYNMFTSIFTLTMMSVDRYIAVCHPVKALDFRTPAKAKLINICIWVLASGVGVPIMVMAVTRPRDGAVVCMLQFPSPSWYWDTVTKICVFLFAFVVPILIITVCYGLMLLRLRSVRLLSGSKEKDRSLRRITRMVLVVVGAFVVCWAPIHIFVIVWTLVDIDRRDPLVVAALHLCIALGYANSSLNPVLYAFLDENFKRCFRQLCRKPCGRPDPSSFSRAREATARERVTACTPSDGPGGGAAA
T3 sequence (P41145 whole entry): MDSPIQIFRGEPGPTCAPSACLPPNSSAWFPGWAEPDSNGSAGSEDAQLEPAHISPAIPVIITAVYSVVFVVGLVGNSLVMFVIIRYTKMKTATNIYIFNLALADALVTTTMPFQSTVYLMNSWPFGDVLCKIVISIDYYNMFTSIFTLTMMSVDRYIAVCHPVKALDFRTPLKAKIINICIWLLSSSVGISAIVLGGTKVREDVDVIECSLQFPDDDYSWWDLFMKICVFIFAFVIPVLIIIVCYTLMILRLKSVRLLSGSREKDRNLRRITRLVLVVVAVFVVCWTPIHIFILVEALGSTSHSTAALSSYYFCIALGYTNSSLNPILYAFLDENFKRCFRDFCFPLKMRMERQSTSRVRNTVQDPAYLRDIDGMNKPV

Regarding `C[C@H]1CN(C[C@H](Cc2ccccc2)C(=O)NCC(=O)O)CC[C@@]1(C)c1cccc(C(N)=O)c1` [Example 58, [[2(R)-[[4(R)-(3-amidophenyl)-3(R),4-dimethyl-1-piperidinyl]methyl]-1-oxo-3-phenylpropyl]amino]acetic Acid], the Ki stood at 85 nM in experiment [1], 2.6 nM in experiment [2] and 1080 nM in experiment [4]. For the same molecule, in experiment [3], the IC50 stood at 3 nM. Besides, the figures for the “% antagonism” value in experiment [5] (2 h pretreatment) and in experiment [5] (6 h pretreatment) were 92% and 61%, respectively.
On to `C[C@H]1CN(CC(Cc2ccccc2)C(=O)NCC(=O)O)CC[C@@]1(C)c1cccc(C(=O)O)c1` (stereo in doubt) [Example 28, [[2(R)-[[4(R)-(3-carboxyphenyl)-3(R),4-dimethyl-1-piperidin-yl]methyl]-1-oxo-3-phenylpropyl]amino]acetic Acid], for which the values for the Ki in experiment [1] and in experiment [2] were 1330 nM and 19 nM, respectively. The IC50 in experiment [3] amounted to 3.4 nM. Moreover, the “% antagonism” value in experiment [5] (2 h pretreatment) is given as 86%; in experiment [5] (6 h pretreatment) it was 71%.

The Ki is a dissociation constant, usually derived from enzyme kinetics or from competition with a known ligand. As usually defined, the IC50 is the concentration needed to halve the response being measured.
